Tests used:
Type in all cases: physicochemical
Solidification test = experiment: Solidification test
Description: A sample in the aluminum cup, taken out after keeping three days in the above hygroscopicity test, was macroscopically observed. Solidification was judged from the appearance of the sample whether it was solidified or not by adsorbing moisture.

Hygroscopicity test = conditions: 25° C., RH 75.2%
Method: An open aluminum cup containing a sample was placed in a desiccator, set at a RH of 75.2% (equilibrated with a saturated sodium chloride aqueous solution), kept at 25° C. for three days, and then weighted. Hygroscopicity was expressed with percentage (%) of the increased weight to the initial weight of the sample.

[1] = Crystallinity by powdery X-ray diffraction (method of Ruland)
Method: Crystallinity of powder was measured by the method of Ruland (Acta Crystallographica, Vol. 14, p. 1180, 1961) based on a powdery X-ray diffraction pattern using “[…]”, an X-ray diffractometer (Cu, Kα-ray) commercialized by Rigaku Corp., Tokyo, Japan.

[2] = Preservation stability of the powder
Method: An open aluminum cup containing a sample was placed in a desiccator, set at a RH of 75.2% (equilibrated with a saturated sodium chloride aqueous solution), kept at 25° C. for three days, and then weighted. Hygroscopicity was expressed with percentage (%) of the increased weight to the initial weight of the sample. A sample in the aluminum cup, taken out after keeping three days in the above hygroscopicity test, was macroscopically observed. Solidification was judged from the appearance of the sample whether it was solidified or not by adsorbing moisture.

SMILES: OCC1OC(OC2C(CO)OC(O)C(O)C2O)C(O)C(O)C1O (stereo not drawn) [No. 9, hydrous crystalline β-maltose, reference compound]
- solidification (in words) (Solidification test): no substantial solidification
- hygroscopicity (in words) (Hygroscopicity test): no hygroscopicity
- Crystallinity (%) [1]: 82.6%

SMILES: OC[C@H]1O[C@H](O[C@H]2[C@H](O)[C@@H](O)[C@H](O)O[C@@H]2CO)[C@H](O)[C@@H](O)[C@@H]1O [No. 10, anhydrous crystalline α-maltose]
- solidification (in words) (Solidification test): heavy solidification
- preservation stability (in words) [2]: unsatisfactory preservation stability
- hygroscopicity (in words) (Hygroscopicity test): high hygroscopicity
- Crystallinity (%) [1]: 76.3%

Reference: patent US7183265B2, “Powdery product comprising crystalline β-maltose monohydrate, its preparation, and uses” (priority 2001, dated 2007)
